Laboratory results: US11958847B1, “Pyrazolidinedione derivatives and their use as PPAR-gamma inhibitors” (KING FAISAL UNIVERSITY, priority 2023, dated 2024)

Tested on: diabetic rats
Assay: Anti-hyperglycemic activity evaluation, Streptozotocin (STZ) model
Format: in vivo, albino rats
Settings: for inhibition in vivo at 50 mg/kg: compound 50 mg/kg oral; for Blood glucose level 5-day / Blood glucose level 10-day: mean ± SEM, n=6
Procedure: Diabetes was experimentally generated in albino rats by intraperitoneal injection of a solution of STZ (60 mg/kg) in sterile normal saline. […] Rats were partitioned into 8 groups consisting of 6 rats in each group (n=6). The control group consisted of the first group of diabetic animals serving as vehicle control and treated orally with carboxymethylcellulose (CMC) (0.5%, 1 ml) alone; Group 2 of diabetic rats was treated with rosiglitazone 100 mg/kg. […] Blood collections were operated by tail vein sampling. The measurements of blood glucose were performed at 0, 5 and 10 days interval. Bayer's Contour TS system was used in order to monitor blood glucose level. In overnight-fasted rats, fasting blood glucose level was measured in all the groups as a base line at 0 time. All blood glucose data were expressed as mean±SEM. The analysis of the data including the variance analysis (ANOVA) and all mean comparisons were accomplished by Tukey-Kramer method. Results are regarded as significant when P<0.01. The anti-hyperglycemic activity (AA) was presented as % AA and computed as follows: % AA=100×[blood glucose level (0-day)−blood glucose level (10-day)]/[blood glucose level (0-day)].

[1] = Rattus norvegicus, 240 h, % AA=100×[glucose (0-day)−glucose (10-day)]/[glucose (0-day)]
[2] = compound 50 mg/kg oral for 7 continuous days

In the case of `O=C(COc1ccc(C=C2C(=O)NNC2=O)cc1)Nc1nc2ccc(Cl)cc2s1` [Compound 1, N-(6-chlorobenzo[d]thiazol-2-yl)-2-(4-((3,5-dioxopyrazolidin-4-ylidene)methyl)phenoxy)acetamide], the inhibition in vivo at 50 mg/kg [1] is reported as 63.5%, the “Blood glucose level 5-day” value [2] is reported as 157.5 ± 3.7 mg/dL and the “Blood glucose level 10-day” value [2] is reported as 123.9 ± 4.2 mg/dl.
In the case of `O=C(COc1ccc(C=C2C(=O)NNC2=O)cc1)Nc1nc2ccc(C(F)(F)F)cc2s1` [Compound 2, 2-(4-((3,5-dioxopyrazolidin-4-ylidene)methyl)phenoxy)-N-(6-(trifluoromethyl)benzo[d]thiazol-2-yl)acetamide], the inhibition in vivo at 50 mg/kg [1] is reported as 64.3%, the “Blood glucose level 5-day” value [2] is reported as 163.7 ± 2.8 mg/dL and the “Blood glucose level 10-day” value [2] is reported as 123.4 ± 3.5 mg/dl.
With `O=C(COc1ccc(C=C2C(=O)NNC2=O)cc1)Nc1nc2ccc(OC(F)(F)F)cc2s1` [Compound 3, 2-(4-((3,5-dioxopyrazolidin-4-ylidene)methyl)phenoxy)-N-(6-(trifluoromethoxy)benzo[d]thiazol-2-yl)acetamide] the inhibition in vivo at 50 mg/kg [1] was 59.5%, the “Blood glucose level 5-day” value [2] was 172.4 ± 3.4 mg/dL and the “Blood glucose level 10-day” value [2] was 141.6 ± 2.8 mg/dl.
In the case of `Cc1cc2nc(NC(=O)COc3ccc(C=C4C(=O)NNC4=O)cc3)sc2cc1Cl` [Compound 4, N-(6-chloro-5-methylbenzo[d]thiazol-2-yl)-2-(4-((3,5-dioxopyrazolidin-4-ylidene)methyl)phenoxy)acetamide], the inhibition in vivo at 50 mg/kg [1] is reported as 66.4%, the “Blood glucose level 5-day” value [2] is reported as 160.2 ± 4.1 mg/dL and the “Blood glucose level 10-day” value [2] is reported as 113.4 ± 2.6 mg/dl.
`CCc1cc2nc(NC(=O)COc3ccc(C=C4C(=O)NNC4=O)cc3)sc2cc1Cl` [Compound 5, N-(6-chloro-5-ethylbenzo[d]thiazol-2-yl)-2-(4-((3,5-dioxopyrazolidin-4-ylidene)methyl)phenoxy)acetamide] was tested, and the inhibition in vivo at 50 mg/kg [1] was 62.8%, the “Blood glucose level 5-day” value [2] was 155.3 ± 3.9 mg/dL and the “Blood glucose level 10-day” value [2] was 127.1 ± 3.1 mg/dl.
In the case of `Cc1c(Cl)ccc2nc(NC(=O)COc3ccc(C=C4C(=O)NNC4=O)cc3)sc12` [Compound 6, N-(6-chloro-7-methylbenzo[d]thiazol-2-yl)-2-(4-((3,5-dioxopyrazolidin-4-ylidene)methyl)phenoxy)acetamide], the inhibition in vivo at 50 mg/kg [1] is reported as 58.6%, the “Blood glucose level 5-day” value [2] is reported as 161.3 ± 4.5 mg/dL and the “Blood glucose level 10-day” value [2] is reported as 143.9 ± 5.3 mg/dl.
With `O=C(COc1ccc(C=C2C(=O)NNC2=O)cc1)Nc1nc2c(Cl)cc(F)cc2s1` [Compound 7, N-(4-chloro-6-fluorobenzo[d]thiazol-2-yl)-2-(4-((3,5-dioxopyrazolidin-4-ylidene)methyl)phenoxy)acetamide] the inhibition in vivo at 50 mg/kg [1] was 66.3%, the “Blood glucose level 5-day” value [2] was 174.1 ± 4.2 mg/dL and the “Blood glucose level 10-day” value [2] was 115.2 ± 4.2 mg/dl.
With `O=C(CCOc1ccc(C=C2C(=O)NNC2=O)cc1)Nc1nc2ccc(Cl)cc2s1` [Compound 8, N-(6-chlorobenzo[d]thiazol-2-yl)-3-(4-((3,5-dioxopyrazolidin-4-ylidene)methyl)phenoxy)propanamide] the inhibition in vivo at 50 mg/kg [1] was 68.7%, the “Blood glucose level 5-day” value [2] was 166.5 ± 3.7 mg/dL and the “Blood glucose level 10-day” value [2] was 106.1 ± 5.1 mg/dl.
With `O=C(CCOc1ccc(C=C2C(=O)NNC2=O)cc1)Nc1nc2ccc(C(F)(F)F)cc2s1` [Compound 9, 3-(4-((3,5-dioxopyrazolidin-4-ylidene)methyl)phenoxy)-N-(6-(trifluoromethyl)benzo[d]thiazol-2-yl)propanamide] the inhibition in vivo at 50 mg/kg [1] was 70.1%, the “Blood glucose level 5-day” value [2] was 159.6 ± 4.6 mg/dL and the “Blood glucose level 10-day” value [2] was 105.4 ± 3.2 mg/dl.
For `O=C(CCOc1ccc(C=C2C(=O)NNC2=O)cc1)Nc1nc2ccc(OC(F)(F)F)cc2s1` [Compound 10, 3-(4-((3,5-dioxopyrazolidin-4-ylidene)methyl)phenoxy)-N-(6-(trifluoromethoxy)benzo[d]thiazol-2-yl)propanamide], the inhibition in vivo at 50 mg/kg [1] was 69.8%, the “Blood glucose level 5-day” value [2] was 153.2 ± 4.2 mg/dL and the “Blood glucose level 10-day” value [2] was 105.2 ± 4.7 mg/dl.
For `Cc1cc2nc(NC(=O)CCOc3ccc(C=C4C(=O)NNC4=O)cc3)sc2cc1Cl` [Compound 11, N-(6-chloro-5-methylbenzo[d]thiazol-2-yl)-3-(4-((3,5-dioxopyrazolidin-4-ylidene)methyl)phenoxy)propanamide], the inhibition in vivo at 50 mg/kg [1] was 68.4%, the “Blood glucose level 5-day” value [2] was 168.7 ± 3.4 mg/dL and the “Blood glucose level 10-day” value [2] was 107.0 ± 2.4 mg/dl.
With `CCc1cc2nc(NC(=O)CCOc3ccc(C=C4C(=O)NNC4=O)cc3)sc2cc1Cl` [Compound 12, N-(6-chloro-5-ethylbenzo[d]thiazol-2-yl)-3-(4-((3,5-dioxopyrazolidin-4-ylidene)methyl)phenoxy)propanamide] the inhibition in vivo at 50 mg/kg [1] was 64.2%, the “Blood glucose level 5-day” value [2] was 171.6 ± 5.1 mg/dL and the “Blood glucose level 10-day” value [2] was 121.9 ± 3.6 mg/dl.
With `Cc1c(Cl)ccc2nc(NC(=O)CCOc3ccc(C=C4C(=O)NNC4=O)cc3)sc12` [Compound 13, N-(6-chloro-7-methylbenzo[d]thiazol-2-yl)-3-(4-((3,5-dioxopyrazolidin-4-ylidene)methyl)phenoxy)propanamide] the inhibition in vivo at 50 mg/kg [1] was 65.5%, the “Blood glucose level 5-day” value [2] was 168.4 ± 4.3 mg/dL and the “Blood glucose level 10-day” value [2] was 119.1 ± 4.3 mg/dl.
`O=C(CCOc1ccc(C=C2C(=O)NNC2=O)cc1)Nc1nc2c(Cl)cc(F)cc2s1` [Compound 14, N-(4-chloro-6-fluorobenzo[d]thiazol-2-yl)-3-(4-((3,5-dioxopyrazolidin-4-ylidene)methyl)phenoxy)propanamide] was tested, and the inhibition in vivo at 50 mg/kg [1] was 68.9%, the “Blood glucose level 5-day” value [2] was 162.5 ± 5.6 mg/dL and the “Blood glucose level 10-day” value [2] was 109.6 ± 5.4 mg/dl.
For `CN(CCOc1ccc(CC2SC(=O)NC2=O)cc1)c1ccccn1` (stereo not drawn) [Rosiglitazone, reference compound], the inhibition in vivo at 100 mg/kg (Rattus norvegicus, po, 240 h, rosiglitazone 100 mg/kg, % AA=100×[glucose (0-day)−glucose (10-day)]/[glucose (0-day)]) was 62%, the “Blood glucose level 5-day” value (rosiglitazone 100 mg/kg) was 162.1 ± 3.8 mg/dL and the “Blood glucose level 10-day” value (rosiglitazone 100 mg/kg) was 129.7 ± 3.7 mg/dl.
